In the test the target is Coagulation factor X (Homo sapiens, UniProt P00742). Briefly: Binding affinity at factor 10a.
Sequence of Coagulation factor X (P00742 41-179 limits assumed): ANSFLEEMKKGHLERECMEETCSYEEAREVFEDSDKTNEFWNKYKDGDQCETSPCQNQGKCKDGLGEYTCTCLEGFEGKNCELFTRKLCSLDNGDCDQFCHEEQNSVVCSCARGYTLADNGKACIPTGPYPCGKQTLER
Sequence of Coagulation factor X (P00742 235-488 limits assumed): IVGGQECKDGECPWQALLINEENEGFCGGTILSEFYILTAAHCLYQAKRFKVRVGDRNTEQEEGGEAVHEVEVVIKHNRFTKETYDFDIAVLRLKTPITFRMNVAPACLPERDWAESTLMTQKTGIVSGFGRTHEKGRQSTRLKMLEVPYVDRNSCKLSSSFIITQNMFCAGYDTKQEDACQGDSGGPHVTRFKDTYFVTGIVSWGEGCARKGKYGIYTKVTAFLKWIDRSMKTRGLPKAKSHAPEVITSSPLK
The compound `C[C@@H](C(=O)N1CCOCC1)N1CC[C@H](NS(=O)(=O)c2cc3ccc(Cl)cc3s2)C1=O` came in with an inhibition constant Ki of 15 nM.

For `C[C@@H](C(=O)N1CCOCC1)N1CC[C@H](NS(=O)(=O)c2cc3cc(Cl)ccc3o2)C1=O`, the affinity, expressed as Ki, was 782 nM.

`C[C@@H](C(=O)N1CCOCC1)N1CC[C@H](NS(=O)(=O)c2cc3cc(Cl)ccc3s2)C1=O` returned a Ki of 47 nM.

As to `C[C@@H](C(=O)N1CCOCC1)N1CC[C@H](NS(=O)(=O)c2cc3ccc(Cl)cc3[nH]2)C1=O`, the affinity, expressed as Ki, was 170 nM.

`C[C@@H](C(=O)N1CCOCC1)N1CC[C@H](NS(=O)(=O)c2cc3ccc(Cl)cc3o2)C1=O` registered a Ki of 285 nM.

As for `C[C@@H](C(=O)N1CCOCC1)N1CC[C@H](NS(=O)(=O)c2nc3ccc(Cl)cc3s2)C1=O`, the affinity corresponds to a Ki of 4160 nM. This Ki lies about 15-fold higher than the previous one.

`C[C@@H](C(=O)N1CCOCC1)N1CC[C@H](NS(=O)(=O)c2nc3cc(Cl)ccc3s2)C1=O` displayed an inhibition constant Ki of 112 nM.

For the compound `C[C@@H](C(=O)N1CCOCC1)N1CC[C@H](NS(=O)(=O)c2cc3cc(Cl)ccc3[nH]2)C1=O`, the Ki stood at 90 nM.
